Laboratory results: patent publication US9611248B2, “Chemical compounds” (Syngenta Participations AG, priority 2013, dated 2017)

Tested on: a variety of test species
Assay: Post-emergence herbicidal activity
Type: in vivo
Design: key to ABUTH (Abutilon theophrasti) damage score / AMARE (Amaranthus retroflexus) damage score / ALOMY (Alopecurus myosuroides) damage score / ECHCG (Echinochloa crus-galli) damage score / ZEAMX (Zea mays) damage score / SOLNI (Solanum nigrum) damage score: 0 = no damage to plant, 5 = total damage to plant
Conditions: rate 1000 g/ha, evaluated after 13 days
Protocol: Seeds of a variety of test species were sown in standard soil in pots. After 8 days cultivation (post-emergence) under controlled conditions in a glasshouse (at 24/16° C., day/night; 14 hours light; 65% humidity), the plants were sprayed with an aqueous spray solution derived from the formulation of the technical active ingredient in acetone/water (50:50) solution containing 0.5% Tween 20 (polyoxyethelyene sorbitan monolaurate, CAS RN 9005-64-5). The test plants were then grown in a glasshouse under controlled conditions (at 24/16° C., day/night; 14 hours light; 65% humidity) and watered twice daily. After 13 days, the test was evaluated (5=total damage to plant; 0=no damage to plant, NC=not captured).

SMILES	ABUTH (Abutilon theophrasti) damage score	ALOMY (Alopecurus myosuroides) damage score	AMARE (Amaranthus retroflexus) damage score	ECHCG (Echinochloa crus-galli) damage score	SETFA (Setaria faberi) damage score	ZEAMX (Zea mays) damage score	SOLNI (Solanum nigrum) damage score
COC1=C(C)C(=O)N(c2cc(C(F)(F)F)c(-c3ccoc3)cn2)C1O (centres unmarked) [AD124]	2	2	5	2	4	0	–
COC1=C(C)C(=O)N(c2nccc(N(C)C)n2)C1O (racemic) [DD2]	0	0	1	1	0	1	–
CC1=C(Cl)C(O)N(c2ccc(Cl)cn2)C1=O (centres unmarked) [AA32]	–	0	0	0	2	0	2
COC1=C(C)C(=O)N(c2cc(C(F)(F)F)c(OCC3CCCO3)cn2)C1O (centres unmarked) [AD57]	5	4	5	5	5	1	–
COC1=C(C)C(=O)N(c2nccc(C(F)(F)F)c2F)C1O (centres unmarked) [AD7]	5	5	5	5	5	3	–
COC1=C(Br)C(=O)N(c2cc(C(C)(C)C)ncn2)C1O (racemic) [CE1]	4	2	5	3	4	1	–
CCCCNS(=O)(=O)c1cnc(N2C(=O)C(C)=C(OC)C2O)cc1C (centres unmarked) [AD96]	3	4	5	4	5	0	–
COC1=C(C)C(=O)N(c2cc(C(C)(C)C)c(Cl)nn2)C1O (centres unmarked) [BD2]	5	4	5	5	5	2	–
C=CCCOc1cnc(N2C(=O)C(C)=C(OC)C2O)cc1C(F)(F)F (centres unmarked) [AD73]	5	4	5	4	5	1	–
COC1=C(C)C(=O)N(c2cc(C(F)(F)F)c(C)cn2)C1O (centres unmarked) [AD28]	5	4	5	5	5	4	–
CCc1cc(N2C(=O)C(C)=C(OC)C2O)ncc1-c1ccccc1F (centres unmarked) [AD105]	5	2	5	3	4	1	–
COC1=C(C)C(=O)N(c2ccc(C(F)(F)F)cn2)C1O (centres unmarked) [AD35]	–	3	5	3	4	0	5
C#Cc1cnc(N2C(=O)C(C)=C(OC)C2O)cc1C(F)(F)F (centres unmarked) [AD20]	4	4	5	4	5	0	–
COC1=C(C)C(=O)N(c2cc(C(C)(C)C)ncn2)C1O (racemic) [CD3]	5	5	5	5	5	3	–
COC1=C(C)C(=O)N(c2cc(C(C)(C)C)cnn2)C1O (centres unmarked) [BD1, 1-(5-tert-butylpyridazin-3-yl)-2-hydroxy-3-methoxy-4-methyl-2H-pyrrol-5-one]	5	4	5	5	5	1	–
COC1=C(C)C(=O)N(c2nccc(C(F)(F)F)c2Br)C1O (centres unmarked) [AD25]	1	1	2	1	2	1	–
CC1=C(Cl)C(O)N(c2cc(C(F)(F)F)c(Br)cn2)C1=O (centres unmarked) [AA25, 1-[5-bromo-4-(trifluoromethyl)-2-pyridyl]-3-chloro-2-hydroxy-4-methyl-2H-pyrrol-5-one]	1	2	5	3	3	1	–
COC1=C(C)C(=O)N(c2cc(C)c(-c3cccc(C#N)c3)cn2)C1O (centres unmarked) [AD109]	5	3	5	5	5	1	–
COC1=C(C)C(=O)N(c2cc(C(C)(C)C)c(OC)nn2)C1O (centres unmarked) [BD10]	5	5	5	5	5	4	–
COC1=C(Br)C(O)N(c2cc(C(F)(F)F)ccn2)C1=O (centres unmarked) [AE1, 3-bromo-2-hydroxy-4-methoxy-1-[4-(trifluoromethyl)-2-pyridyl]-2H-pyrrol-5-one]	4	3	5	5	3	0	–
COC1=C(C)C(=O)N(c2cc(N(C)C)ncn2)C1O (racemic) [CD7]	2	0	2	0	0	0	–
CC1=C(Cl)C(O)N(c2cc(C(C)C)c(C(=O)NC(C)(C)C)cn2)C1=O (centres unmarked) [AA49]	3	2	–	1	3	0	–
